# Data published in US20220411414A1, “INHIBITORS FOR THE B-CATENIN/B-CELL LYMPHOMA 9 (BCL9) PROTEIN-PROTEIN INTERACTION” (H. LEE MOFFITT CANCER CENTER AND RESEARCH INSTITUTE, INC., priority 2018, published 2022).
# Legend:
# [1] = test system: TOPFlash (three wild-type Tcf binding sites) luciferase reporter; test: Wnt-responsive TOPFlash luciferase reporter assay, β-catenin-activated HEK239; format: cell-based; conditions: 24 h treatment, read-out: TOPFlash IC50 ± SD β-catenin-activated HEK239
# Description: (§1) The TOPFlash luciferase reporter assay (in which the luciferase reporter has three wild-type Tcf4 binding sites) was performed with 4 and 5. Cell transfection and luciferase assay. FuGENE6 (E269A, Promega) 96 well plate format was used for the transfection of HEK293 and SW480 cells according to the manufacturer's instruction. HEK293 cells were co-transfected with 45 ng of TOPFlash or FOPFlash reporter gene, 135 ng pcDNA3.1-β-catenin, and 20 ng of pCMV-RL normalization reporter gene. SW480 cells were co-transfected with 60 ng of the TOPFlash or FOPFlash reporter gene and 40 ng of pCMV-RL normalization reporter. Cells were cultured in DMEM and 10% FBS at 37° C. for 24 h, and different concentrations of inhibitors or DMSO was added. After 24 h, the luciferase reporter activity was measured using the Dual-Glo system (E2940, Promega). Normalized luciferase activity in response to the treatment with 4 and 5 was compared with that obtained from the cells treated with DMSO. Experiments were performed in triplicate.
# [2] = test system: TOPFlash (three wild-type Tcf binding sites) luciferase reporter; test: Wnt-responsive TOPFlash luciferase reporter assay, SW480; format: cell-based; conditions: Homo sapiens, 24 h treatment, read-out: TOPFlash IC50 ± SD SW480
# Description: as §1
# [3] = test system: FOPFlash (three mutant Tcf4 binding sites) luciferase reporter; test: FOPFlash luciferase reporter assay; format: cell-based; conditions: FIG. 1
# Description: as §1, with “Cell” for “The TOPFlash luciferase reporter assay (in which the luciferase reporter has three wild-type Tcf4 binding sites) was performed with 4 and 5. Cell”
# A549 = test: MTs growth inhibition assay, A549 (Wnt-latent); format: cell-based; conditions: Homo sapiens, read-out: MTs IC50 ± SD A549
# β-catenin/BCL9 = target: T1, β-catenin/BCL9 (Homo sapiens, UniProt P35222); test: AlphaScreen competitive inhibition assay, β-catenin/BCL9 PPI; format: binding; conditions: for Ki: AlphaScreen
# T1 construct: Full-length β-catenin and (residues 1-781) were cloned into a pET-28b vector carrying a C-terminal 6× histidine; made in house; host or cells: E. coli BL21 DE3
# T1 sequence (P35222 1-781): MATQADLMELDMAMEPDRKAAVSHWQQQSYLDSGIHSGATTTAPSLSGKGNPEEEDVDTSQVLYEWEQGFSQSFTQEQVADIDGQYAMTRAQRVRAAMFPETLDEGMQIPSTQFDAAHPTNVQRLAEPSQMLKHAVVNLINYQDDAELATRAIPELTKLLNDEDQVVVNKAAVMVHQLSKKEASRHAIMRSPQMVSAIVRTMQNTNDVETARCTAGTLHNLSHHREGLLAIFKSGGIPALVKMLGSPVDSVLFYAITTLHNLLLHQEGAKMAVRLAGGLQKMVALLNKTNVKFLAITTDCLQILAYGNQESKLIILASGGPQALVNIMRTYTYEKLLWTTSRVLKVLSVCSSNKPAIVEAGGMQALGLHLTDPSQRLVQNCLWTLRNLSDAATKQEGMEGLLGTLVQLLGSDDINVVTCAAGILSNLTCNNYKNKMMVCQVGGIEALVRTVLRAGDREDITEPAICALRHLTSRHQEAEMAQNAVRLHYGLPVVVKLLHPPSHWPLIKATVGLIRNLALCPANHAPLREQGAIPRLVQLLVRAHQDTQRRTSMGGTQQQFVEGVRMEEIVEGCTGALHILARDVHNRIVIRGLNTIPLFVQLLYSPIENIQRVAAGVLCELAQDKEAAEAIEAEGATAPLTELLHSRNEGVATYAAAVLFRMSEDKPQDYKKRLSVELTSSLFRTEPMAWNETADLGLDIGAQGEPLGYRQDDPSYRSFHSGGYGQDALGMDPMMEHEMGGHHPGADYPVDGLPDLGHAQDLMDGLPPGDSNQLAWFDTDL
# Excerpt: The biochemical AlphaScreen assay was employed to evaluate the inhibitory potency of these two final products for disruption of the β-catenin/BCL9 PPI.
# (§2) BCL9 peptide synthesis and purification. Human BCL9 (residues 350-375), N-terminally biotinylated human BCL9 (residues 350-375), human E-cadherin (residues 824-877), and N-terminally biotinylated human E-cadherin (residues 824-877) were synthesized by InnoPep Inc. (San Diego, Calif., www.innopep.com). All synthesized peptides were purified by HPLC with purity >95%. The structures were validated by LC/MS. The sequences are as follows (Ahx, 6-aminohexanoic acid).
# For the β-catenin/BCL9 assay, 5 nM of biotinylated BCL9 and 40 nM of His6-tagged β-catenin were incubated in assay buffer at 4° C. for 30 min. For the β-catenin/E-cadherin assay, 10 nM of biotinylated human E-cadherin, and 40 nM of His6-tagged human β-catenin were added and incubated in assay buffer at 4° C. for 30 min. Different concentrations of the tested peptide or inhibitor were added and incubated in 20 μL assay buffer at 4° C. for another 1.5 h. All of the above assay plates were covered and gently mixed on an orbital shaker. The donor and acceptor beads were then added to the plates to a final concentration of 10 μg/mL in 25 μL assay buffer. The mixture was incubated for 1 h at 4° C. before detection. The IC50 value was determined by nonlinear least-square analysis of GraphPad Prism 5.0. The inhibition constant (Ki) values were derived from the IC50 values using a method reported by Nikolovska-Coleska et al (Nikolovska-Coleska, Z.; Wang, R.; Fang, X.; Pan, H.; Tomita, Y.; Li, P.; Roller, P. P.; Krajewski, K.; Saito, N. G.; Stuckey, J. A.; Wang, S. Development and optimization of a binding assay for the XIAP BIR3 domain using fluorescence polarization, Anal. Biochem. 2004, 332, 261-273.). The assays were conducted under the conditions required by Nikolovska-Coleska et al.'s equation for determining the Ki values. All of the experiments were performed in triplicate. The results were expressed as mean±standard deviation. The inhibitor selectivity for, β-catenin/BCL9 over, β-catenin/E-cahderin interactions was defined as the ratio of the respective Ki value of β-catenin/E-cadherin interactions over that of β-catenin/BCL9 interactions.
# β-catenin/E-cadherin = target: T2, β-catenin/E-cadherin (Homo sapiens, UniProt P35222); test: AlphaScreen selectivity assay, β-catenin/E-cadherin PPI; format: binding; conditions: Table 2, read-out: Ki ± SD β-catenin/E-cadherin
# T2 construct: Full-length β-catenin and (residues 1-781) were cloned into a pET-28b vector carrying a C-terminal 6× histidine; made in house; host or cells: E. coli BL21 DE3
# T2 sequence (P35222 1-781): T1 sequence (P35222 1-781)
# Excerpt: Compounds 4 and 5 were further evaluated with their selectivities for the disruption of β-catenin/BCL9 over β-catenin/E-cadherin interactions using the AlphaScreen selectivity assay (Zhang, M.; Wisniewski, J. A.; Ji, H AlphaScreen selectivity assay for, β-catenin/B-cell lymphoma 9 inhibitors. Anal. Biochen. 2015, 469, 43-53.).
# as §2, with “The structures were validated by LC/MS. The sequences are as follows (Ahx, 6-aminohexanoic acid).” left out
# For the β-catenin/BCL9 assay, 5 nM of biotinylated BCL9 and 40 nM of His6-tagged β-catenin were incubated in assay buffer at 4° C. for 30 min. […] The IC50 value was determined by nonlinear least-square analysis of GraphPad Prism 5.0. The inhibition constant (Ki) values were derived from the IC50 values using a method reported by Nikolovska-Coleska et al (Nikolovska-Coleska, Z.; Wang, R.; Fang, X.; Pan, H.; Tomita, Y.; Li, P.; Roller, P. P.; Krajewski, K.; Saito, N. G.; Stuckey, J. A.; Wang, S. Development and optimization of a binding assay for the XIAP BIR3 domain using fluorescence polarization, Anal. Biochem. 2004, 332, 261-273.). […] The results were expressed as mean±standard deviation. […]
# [4] = target: T3, β-catenin/BCL9 interaction (Homo sapiens, UniProt P35222); conditions: literature; cited from earlier work
# T3 sequence (P35222 1-781): T1 sequence (P35222 1-781)
# activated β-catenin = target: T4, activated β-catenin (Homo sapiens, UniProt P35222); conditions: literature; cited from earlier work
# T4 sequence (P35222 1-781): T1 sequence (P35222 1-781)
# Wnt target genes = conditions: literature; cited from earlier work
IC50 [1] [µM],IC50 [2] [µM],IC50 (A549) [µM],selectivity for β-catenin/BCL9 over β-catenin/E-cadherin PPIs (in words) (β-catenin/BCL9; AlphaScreen biochemical assay),"Ki (β-catenin/BCL9; Table 1, mean ± SD (n = 3)) [nM]","Ki (β-catenin/BCL9; Table 2, mean ± SD (n = 3)) [nM]",Selectivity BCL9/cadherin (β-catenin/BCL9; ratio of Ki β-catenin/E-cadherin over Ki β-catenin/BCL9),Ki (β-catenin/E-cadherin) [µM],Compound,FOPFlash luciferase activity [3],disruption of the β-catenin/BCL9 interaction [4],destabilization of activated β-catenin (activated β-catenin),transcription of Wnt target genes / β-catenin-dependent transcription (Wnt target genes)
50 ± 5.2,43 ± 3.4,> 400,exceptionally high selectivity,1600 ± 230,1600 ± 230,>570,> 915,"Cl.Cl.O=C(Nc1ccc(O[C@@H]2CCNC2)c(-c2cccc(-c3nn[nH]n3)c2)c1)c1ccc(O[C@H]2CCNC2)c(-c2ccc3ccsc3c2)c1 [Compound 5, (R)-3-((5-(3-(benzo[b]thiophen-6-yl)-4-(((S)-pyrrolidin-1-ium-3-yl)oxy)benzamido)-3′-(2H-tetrazol-5-yl)-[1,1′-biphenyl]-2-yl)oxy) pyrrolidin-1-ium chloride]",did not inhibit,–,–,–
–,–,–,–,–,–,–,–,CC(C)c1cc2c(c(O)c1O)[C@@]1(C(=O)O)CCCC(C)(C)[C@@H]1CC2 [carnosic acid],–,can disrupt the β-catenin/BCL9 interaction,destabilize,inhibit
